Assay results from US11077090B2, “Compounds and compositions and uses thereof” (Sunovion Pharmaceuticals Inc., priority 2016, dated 2021).
Like-named read-outs stand apart in the source and are kept apart here.

Tested on: compound-treated mice
Experiment: Neuropharmacological assay (SmartCube): behavioral activity signature and minimal effective dose
Format: in vivo
Details: for AD: ADHD (probability of activity signature) / AG: analgesic (probability of activity signature) / MS: mood stabilizer (probability of activity signature) / UN: uncharacterized CNS activity (probability of activity signature) / AX: anxiolytic (probability of activity signature) / CE: cognitive enhancer (probability of activity signature) / DP: anti-depressant (probability of activity signature) / PS: anti-psychotic (probability of activity signature) / SD: sedative hypnotic (probability of activity signature): i.p. 15 min before test, most efficacious dose(s); for minimal effective dose: Mus musculus, ip
Outline: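 Mice dosed i.p. 15 min before test, compound in N-methyl-2-pyrrolidone/PEG/propylene glycol, 3 doses; video-captured behavior matched to reference-drug signatures, giving per-class probabilities at most efficacious dose. MED from doses typically 0.3–30 mpk, defined as lowest dose with ≥50% total activity.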

[1] = MED = dose having 50% or more total activity, read-out: Potency: minimal effective dose (MED), binned
[2] = MED = dose having 50% or more total activity, read-out: Potency: minimal effective dose (MED)

SMILES	Potency: minimal effective dose (MED) (MED = dose having 50% or more total activity, hydrochloride)	AD: ADHD (probability of activity signature)	AG: analgesic (probability of activity signature)	MS: mood stabilizer (probability of activity signature)	UN: uncharacterized CNS activity (probability of activity signature)	AX: anxiolytic (probability of activity signature) (hydrochloride)	CE: cognitive enhancer (probability of activity signature) (hydrochloride)	DP: anti-depressant (probability of activity signature) (hydrochloride)	PS: anti-psychotic (probability of activity signature) (hydrochloride)	SD: sedative hypnotic (probability of activity signature) (hydrochloride)	minimal effective dose [1]	AX: anxiolytic (probability of activity signature)	CE: cognitive enhancer (probability of activity signature)	DP: anti-depressant (probability of activity signature)	PS: anti-psychotic (probability of activity signature)	SD: sedative hypnotic (probability of activity signature)	minimal effective dose [2]
Cc1ccc2c(c1)C(N)COCC2.Cl (centres unmarked) [Example 31, 8-Methyl-1,2,4,5-tetrahydrobenzo[d]oxepin-1-amine hydrochloride]	C (>10 to ≤30 mpk)	+ (LOQ ≤ + <5%)	++ (5% ≤ ++ <25%)	+ (LOQ ≤ + <5%)	+++ (25% ≤ +++ <50%)	++ (5% ≤ ++ <25%)	+ (LOQ ≤ + <5%)	++ (5% ≤ ++ <25%)	+ (LOQ ≤ + <5%)	+ (LOQ ≤ + <5%)	–	–	–	–	–	–	–
CC[C@H]1OCc2ccccc2[C@@H]1N (single isomer, unassigned) [Example 193]	–	+ (LOQ ≤ + <5%)	++ (5% ≤ ++ <25%)	+ (LOQ ≤ + <5%)	++++ (50% ≤ ++++)	–	–	–	–	–	3 to 10 mg/kg	++ (5% ≤ ++ <25%)	++ (5% ≤ ++ <25%)	+ (LOQ ≤ + <5%)	++ (5% ≤ ++ <25%)	++ (5% ≤ ++ <25%)	–
COc1cccc2c1C(N)COC2.Cl (centres unmarked) [Example 25]	–	+ (LOQ ≤ + <5%)	++ (5% ≤ ++ <25%)	+ (LOQ ≤ + <5%)	+++ (25% ≤ +++ <50%)	–	–	–	–	–	–	++ (5% ≤ ++ <25%)	++ (5% ≤ ++ <25%)	++ (5% ≤ ++ <25%)	++ (5% ≤ ++ <25%)	+ (LOQ ≤ + <5%)	10 to 30 mg/kg
Cc1cccc2c1[C@H](N)[C@@H](C)OC2.Cl [Example 83]	–	+ (LOQ ≤ + <5%)	++ (5% ≤ ++ <25%)	+ (LOQ ≤ + <5%)	++++ (50% ≤ ++++)	–	–	–	–	–	–	++ (5% ≤ ++ <25%)	++ (5% ≤ ++ <25%)	+ (LOQ ≤ + <5%)	++ (5% ≤ ++ <25%)	+ (LOQ ≤ + <5%)	3 to 10 mg/kg
CC[C@H]1OCc2ccc(F)cc2[C@H]1N [Example 188]	–	+ (LOQ ≤ + <5%)	++ (5% ≤ ++ <25%)	+ (LOQ ≤ + <5%)	++++ (50% ≤ ++++)	–	–	–	–	–	< 3 mg/kg	++ (5% ≤ ++ <25%)	+ (LOQ ≤ + <5%)	++ (5% ≤ ++ <25%)	++ (5% ≤ ++ <25%)	+ (LOQ ≤ + <5%)	–
Cc1ccc(Cl)c2c1[C@@H](N)COC2 (single isomer, unassigned) [Example 176]	–	+ (LOQ ≤ + <5%)	+ (LOQ ≤ + <5%)	+ (LOQ ≤ + <5%)	++++ (50% ≤ ++++)	–	–	–	–	–	3 to 10 mg/kg	++ (5% ≤ ++ <25%)	++ (5% ≤ ++ <25%)	++ (5% ≤ ++ <25%)	++ (5% ≤ ++ <25%)	+ (LOQ ≤ + <5%)	–
CC(C)c1cccc2c1COCC2N.Cl (centres unmarked) [Example 18, 8-Isopropylisochroman-4-amine hydrochloride]	–	+ (LOQ ≤ + <5%)	+++ (25% ≤ +++ <50%)	+ (LOQ ≤ + <5%)	+ (LOQ ≤ + <5%)	–	–	–	–	–	–	++ (5% ≤ ++ <25%)	++ (5% ≤ ++ <25%)	++ (5% ≤ ++ <25%)	++ (5% ≤ ++ <25%)	++ (5% ≤ ++ <25%)	10 to 30 mg/kg
CN[C@H]1COCc2cccc(Cl)c21 [Example 146]	–	+ (LOQ ≤ + <5%)	++ (5% ≤ ++ <25%)	+ (LOQ ≤ + <5%)	++ (5% ≤ ++ <25%)	–	–	–	–	–	–	+++ (25% ≤ +++ <50%)	++ (5% ≤ ++ <25%)	+ (LOQ ≤ + <5%)	+ (LOQ ≤ + <5%)	+ (LOQ ≤ + <5%)	3 to 10 mg/kg
C[C@H]1OCc2ccc3ccccc3c2[C@@H]1N.Cl (single isomer, unassigned) [Example 90]	–	+ (LOQ ≤ + <5%)	++ (5% ≤ ++ <25%)	+ (LOQ ≤ + <5%)	+ (LOQ ≤ + <5%)	–	–	–	–	–	–	+++ (25% ≤ +++ <50%)	++ (5% ≤ ++ <25%)	++ (5% ≤ ++ <25%)	+ (LOQ ≤ + <5%)	++ (5% ≤ ++ <25%)	10 to 30 mg/kg
Cc1cccc2c1COCCC2N.Cl (centres unmarked) [Example 37]	–	+ (LOQ ≤ + <5%)	++ (5% ≤ ++ <25%)	+ (LOQ ≤ + <5%)	+++ (25% ≤ +++ <50%)	–	–	–	–	–	–	++ (5% ≤ ++ <25%)	++ (5% ≤ ++ <25%)	+ (LOQ ≤ + <5%)	++ (5% ≤ ++ <25%)	+ (LOQ ≤ + <5%)	10 to 30 mg/kg
Cc1ccc2c(c1)[C@@H](N)[C@H](C)OC2 [Example 156]	–	+ (LOQ ≤ + <5%)	++ (5% ≤ ++ <25%)	+ (LOQ ≤ + <5%)	+++ (25% ≤ +++ <50%)	–	–	–	–	–	–	++ (5% ≤ ++ <25%)	++ (5% ≤ ++ <25%)	+ (LOQ ≤ + <5%)	+ (LOQ ≤ + <5%)	+ (LOQ ≤ + <5%)	3 to 10 mg/kg
